Data set [1] is described as follows: Aqueous (kinetic, nephelometric) solubility in PBS. The data set is classed as physicochemical. On the procedure: Aliquots of 5 µL of 20.00 mM, 10.00 mM, 5.00 mM, 2.50 mM, 1.25 mM, 0.63 mM, 0.31 mM, 0.16 mM DMSO stock solutions of the control (highly soluble 2′-deoxy-5-fluorouridine and insoluble raloxifen hydrochloride) and the test compounds were loaded in 96-well microplates with clear flat bottoms in duplicates. Then, 250 µL of PBS was dispensed into each well using a Multidrop Combi dispenser to reach the concentrations of 400.0 µM, 200.0 µM, 100.0 µM, 50.0 µM, 25.0 µM, 12.5 µM, 6.25 µM, 3.125 µM for each compound with 2% final DMSO. Then, the resulting solutions were incubated for 15 min at room temperature. The effective range of this assay is approximately 5–200 µM. The solubility of each compound was calculated using the dedicated fitting algorithm. The physical base of nephelometric titration fitting is based on the quick increase in turbidity when a concentration of the tested compound reaches its solubility level. An intersection of the regression line of the high-level turbidity points with the calculated baseline was plotted for each compound. The baseline is a linear regression line plotted for fully soluble control compound DOFU. Each concentration point signal of the test article was compared with the corresponding signal of DOFU. […]

A further data set concerns C57BL/6J male mice. Description: Tail-flick reflex model. The data set is classed as in vivo. The conditions noted are these: single intraperitoneal injection at 10 mg/kg. On the procedure: A tail-flick reflex test was performed as previously described. The parameters of the tail-flick instrument (7360, Ugo Basile Instruments, Varese, Italy) were set up to keep the baseline at 2.5–4.0 s. Mice were fixed and the part about 1.5–2 cm away from the tail of the mouse was aligned with the infrared emission hole of the instrument. […] Latencies of mice of less than 2 s or more than 5 s were excluded. […] The cut-off time in the tail-flick reflex test was set at 8 s to avoid sensitization and damage to the skin and to achieve the maximum possible effect (MPE%) = (measured value − basic value) × 100/(cut-off − basic value). C57BL/6J male mice obtained from The Jackson Laboratory (Bar Harbor, ME, USA) weighing 28 g were used for the tail-flick test. Animal procedures were conducted following the rules and regulations of the Institutional Animal Care and Use Committee of the National Institute on Alcohol Abuse and Alcoholism (NIAAA) under the protocols of LPS-GK1.

Structures are written as SMILES. ≈ marks a conversion by molar mass, not a printed value.

Usually solubility stands for the dissolved amount per volume that the medium holds. For `O=C(NC12CC3CC(CC(C3)C1)C2)NS(=O)(=O)c1ccc(OC(F)(F)F)cc1` [Compound 4f], in data set [1] (PBS, pH 7.4, aqueous buffer, kinetic from dmso stock, read-out: Aq. Solubility pH = 7.4), the solubility at 15 min came out at 53 µg/mL (≈ 127 µM). The “aqueous solubility (in words)” value in data set [1] (pH 7.4) was “moderate aqueous solubility”. Also, the “analgesic activity in tail-flick model” value with C57BL/6J male mice is reported as “significant efficacy”.

For the origin of these results see PMC11242993, “Evaluation of the Therapeutic Potential of Sulfonyl Urea Derivatives as Soluble Epoxide Hydrolase (sEH) Inhibitors” (Molecules, 2024).
